Earlier results in patent publication US4782898A, “Determining residual oil saturation using carbon 14 labeled carbon dioxide” (priority 1986, dated 1988).

distribution coefficient, Ki (ratio of concentration of tracer in the oil phase to that in the water phase) | Compound
about 2 | O=C=O [CO2, carbon dioxide]
about 2 | O=[14C]=O [carbon 14 labeled CO2]
